Paper PMC7721803, “Development of a penem antibiotic against Mycobacteroides abscessus” (Communications Biology, 2020)

Experiment: in vivo
Design: species or system BALB/c mice
Settings: mouse, sc
Experimental: All procedures involving mice were approved by the Animal Care and Use Committee of Johns Hopkins University. […] Blood was sampled from three mice per group per time point by mandibular vein puncture or cardiac puncture at the following time points: 5, 15, 30, 60, 120, and 240 min post-dose. Plasma was separated in heparin-containing tubes and frozen. […] Concentration–time data were analyzed by standard non-compartmental and compartmental techniques using WinNonlin (version 7.0; Pharsight, Mountain View, CA). A one-compartmental model was used to perform simulations to predict the plasma concentration–time profile after subcutaneous doses of 150, 300, and 450 mg/kg, alone and in combination with probenecid. A plasma free drug fraction of 2% of the total drug concentration was included in the simulations.

## C[C@@H](O)C1C(=O)N2C(C(=O)O)=C(SC3CN(C4=NCCS4)C3)SC12 (stereo in doubt) [T405]
female, BALB/c
  half-life: 1.26 h
female, BALB/c, 25 mg/kg
  AUC(0-t): 205 µg·h/mL
  Cmax: 164 µg/mL
  half-life: 0.82 h
  Half-life, effect of co-administration with cilastatin: not affected
